The source of these data is patent US20220017468A1, “ISOQUINOLINE COMPOUNDS AND THEIR USE IN TREATING AhR IMBALANCE” (Dermavant Sciences GmbH, priority 2020, published 2022).

The target in series [1] is T1, AhR (Homo sapiens, UniProt P35869).
T1 construct: LS-180 cells stably transfected with a CYP1A1 promoter-linked beta-lactamase gene reporter construct; endogenous in cells; host or cells: CYP1A1-bla LS-180 cells
T1 sequence (P35869 11-848): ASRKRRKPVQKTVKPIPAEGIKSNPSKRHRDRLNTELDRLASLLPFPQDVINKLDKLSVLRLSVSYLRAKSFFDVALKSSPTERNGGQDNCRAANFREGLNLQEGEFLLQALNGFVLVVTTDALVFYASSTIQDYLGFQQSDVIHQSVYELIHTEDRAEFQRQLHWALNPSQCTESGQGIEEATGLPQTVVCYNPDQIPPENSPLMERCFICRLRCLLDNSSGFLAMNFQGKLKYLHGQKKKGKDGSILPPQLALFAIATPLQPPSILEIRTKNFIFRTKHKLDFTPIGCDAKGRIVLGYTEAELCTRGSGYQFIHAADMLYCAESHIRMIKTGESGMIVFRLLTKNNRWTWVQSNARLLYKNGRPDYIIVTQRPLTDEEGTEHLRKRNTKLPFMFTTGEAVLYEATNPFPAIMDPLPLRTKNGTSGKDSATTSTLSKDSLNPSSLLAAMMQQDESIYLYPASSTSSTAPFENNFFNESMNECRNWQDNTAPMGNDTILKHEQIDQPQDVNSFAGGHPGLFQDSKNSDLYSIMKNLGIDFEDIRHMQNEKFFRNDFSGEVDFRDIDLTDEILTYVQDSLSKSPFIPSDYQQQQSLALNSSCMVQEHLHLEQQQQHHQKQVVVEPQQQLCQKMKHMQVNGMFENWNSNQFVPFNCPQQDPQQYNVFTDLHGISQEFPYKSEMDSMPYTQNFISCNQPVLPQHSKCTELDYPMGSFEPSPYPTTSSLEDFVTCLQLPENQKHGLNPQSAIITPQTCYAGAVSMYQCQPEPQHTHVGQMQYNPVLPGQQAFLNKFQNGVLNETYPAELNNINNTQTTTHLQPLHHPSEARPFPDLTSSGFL
As to the kind of experiment: CYP1A1-bla LS-180 AhR agonist assay. The settings on record: CYP1A1-bla LS-180 cells, ~20 hrs. It counts as cell-based.
Protocol: LS-180 cells stably transfected with a CYP1A1 promoter-linked beta-lactamase gene reporter construct (termed CYP1A1-bla LS-180 cells) were used to characterize the ability of compounds to activate AhR. In brief, AhR activity was measured using the LiveBLAzer assay kit which utilizes a beta lactamase (bla) reporter gene downstream of CYP1A1 promoter, which metabolizes its substrate to give a fluorescent readout. For the agonist assay, CYP1A1-bla LS-180 cells were treated with increasing concentrations of compound over a 100,000-fold concentration range.
CYP1A1-bla LS-180 cells in exponential growth phase were washed twice with DPBS then seeded into 96-well microplates (50,000 cells/well) and allowed to adhere. […] The LiveBLAzer FRET B/G β-lactamase substrate was added in the final hour of incubation and resulting blue/green fluorescence was measured using a 96-well microplate reader.
AhR activity was measured as a function of beta-lactamase expression using a fluorescence resonance energy transfer-based readout. TCDD and FICZ were used as controls to validate the system.

Series [2] deals with primary human cell culture platforms. The experiment in a line: BioMAP Diversity Plus profiling. It is filed as cell-based. The settings on record: profiles overlaid.
In series [3] the target is T1, AhR. The conditions noted are these: value reported by Invitrogen; cited from earlier work.
Series [4] can be described thus: oxygen radical absorbance capacity (ORAC) test. It counts as biochemical. The settings on record: Trolox Equivalent Values.
Series [5] has as its system IL-17A. The experiment in a line: CD4+ T cell IL17 assay. It is filed as cell-based, human. The protocol: Therefore, compounds are evaluated for their ability to reduce IL-17 production from CD4+ T cells stimulated under Th17-skewing conditions. Cryopreserved human CD4^+ T cells (AllCells, LLC, Alameda, CA and Stemcell Technologies, Inc. Vancouver, Canada) were differentiated to the Th17 subtype by culturing for 5 days in CD3-coated tissue culture plates (2 μg/mL) in Iscove's modified Dulbecco's medium (IMDM) containing 10% HI-FBS, 55 μM 2-mercaptoethanol and soluble anti-CD28 (3 μg/mL) in the presence of a Th17 skewing cocktail, [IL-1β (10 ng/mL), IL-6 (30 ng/mL), TGFβ (0.5 ng/mL), IL-21 (10 ng/mL), IL-23 (10 ng/mL), anti-IFNγ (10 μg/mL) and anti-IL-4 (10 μg/mL)] in the presence or absence of serially diluted compounds. Secretion of IL-17 from polarized CD4+ T-cells was measured in the culture media using an MSD (Meso Scale Discovery) detection system following 5 day exposure toTh17 polarization reagents with and without compounds.

Series [6] has as its system Nrf2. As to the kind of experiment: luciferase-based reporter assay for NQO1 gene expression. It is filed as cell-based. For orientation: Reporter assays use an easily measured gene product as a stand-in for the process of interest.
The target of series [7] is T2, CB2 (Homo sapiens, UniProt P34972).
T2 construct: expressed in transfected cells
The experiment in a line: fluorescence-based agonist assay using genetically modified yeast. The settings on record: read-out: CB2 pEC50 (converted). It is filed as cell-based.

T2 sequence (P34972 whole entry, species assumed): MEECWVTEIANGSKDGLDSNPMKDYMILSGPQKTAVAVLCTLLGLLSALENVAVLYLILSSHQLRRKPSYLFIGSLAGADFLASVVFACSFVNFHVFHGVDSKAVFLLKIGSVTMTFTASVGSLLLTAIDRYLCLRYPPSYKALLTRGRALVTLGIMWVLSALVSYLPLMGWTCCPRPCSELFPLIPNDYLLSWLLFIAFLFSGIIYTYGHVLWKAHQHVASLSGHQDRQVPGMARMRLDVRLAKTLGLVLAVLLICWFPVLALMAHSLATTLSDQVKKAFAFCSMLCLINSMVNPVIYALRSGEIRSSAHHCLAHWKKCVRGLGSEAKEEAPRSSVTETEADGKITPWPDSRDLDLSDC

The term pEC50 denotes the negative decadic logarithm of the EC50, by convention in mol/L. “6-formylindolo(3,2-b)carbazole [FICZ, reference compound]” showed a negative-log EC50 (pEC50) in series [1] of 6.82. Further, in series [2], the “sIL-17 in BioMAP” value is given as “not seen”.
`Clc1cc2c(cc1Cl)Oc1cc(Cl)c(Cl)cc1O2` [TCDD] had a pEC50 in series [1] of 10.34. Further, the “pEC50 reported by Invitrogen” value in series [3] is recorded as 9.70.
Consider `CC(C)c1c(O)cc(/C=C/c2ccccc2)cc1O` [tapinarof], for which, in series [4], the Hydroxyl-radical was found to be 1067 TEV, the Peroxyl radical-hydro is 4663 TEV, the Peroxyl radical-lipo was 2164 TEV and the Peroxynitrite turned out to be 140 TEV. Further, in series [4], the Singlet oxygen turned out to be 3581 TEV, the Superoxide anion was 11241 TEV and the “Total ORAC value” is listed as 22855 TEV. Also, the IC50 in series [5] (T-cell, MSD-based readout of secreted IL-17A from Th17-polarized primary human CD4+ peripheral blood T cells, read-out: IL-17A pIC50 (converted)) is 3.16 nM. For the same molecule, the IL-17A production entry in series [5] (Th17-skewing conditions, applied throughout culture) was “suppression of IL-17A”. Also, the “Nrf2 pEC50” value in series [6] is given as “pEC50 = 7.6”. For the same molecule, the EC50 in series [7] was 158 nM. Besides, in series [2], the “sIL-17 in BioMAP” value is recorded as “not seen”.
